The values that follow come from US20190144912A1, “METHODS FOR IDENTIFYING NOVEL ANTIBIOTICS AND RELATED COMPOSITIONS” (priority 2015, published 2019).

The target of series [1] is T1, E. coli Lsp (Escherichia coli, UniProt P00804, D131G/R160K). To be noted: resynthesized compound.
Procedure: Next, 50 nL of stock TSRI FL library compounds were pinned into each well to a final concentration of 8.4 μM and plates were centrifuged briefly. […] Fluorescence was measured on an EnVision pate reader (ex. 355 nm; em. 495 nm).
The 344 compounds were subjected to a dose-dependent titration assay with 10-point dose-response titrations (3-fold dilutions) in triplicate. LSP primary and pre-quench titration assays employed the same reagents, protocols, and detection systems as the secondary assays. […] Globomycin was included in the both titration assays as a control. For each test compound, percent activity was plotted against compound concentration. A four parameter equation describing a sigmoidal dose-response curve was then fitted with adjustable baseline using Assay Explorer software (Symyx Technologies Inc.). The reported IC50 values were generated from fitted curves by solving for the X-intercept value at the 50% activity level of the Y-intercept value.
Series [2] addresses T1, E. coli Lsp. In words: biochemical. Set-up: The full length E. coli Lsp clone was generated using colony PCR of E. coli K12; His-tag (pET19b leader); made in house; host or cells: E. coli BL21(DE3)pLysS. How it is done: Utilizing the purified and solubilized Lsp enzyme, we developed an in vitro high-throughput functional screening for the integral membrane protease Lsp. First, screening of the Maybridge HitFinder library (Thermo Fisher) was conducted in black polystyrene 384-well low volume plates (Greiner #788076) using a BioRAPTR reagent dispenser (Beckman Coulter). Purified Lsp was diluted to 500 nM in assay buffer (PBS, 5% glycerol, 0.5% DDM pH 7.4) and 10 µL of this stock was added into each well. Next, 100 nL of a 2 mM stock of library compounds were pinned into each well and plates were centrifuged briefly. Following incubation at room temperature for 30 minutes, 2.5 μL of 250 μM Lsp FRET substrate in 25% dimethyl sulfoxide (DMSO), 75% assay buffer was added to each well. The plates were spun down and incubated for 30 minutes at room temperature. The assay was quenched with 2.5 μL of a solution containing 500 mM zinc chloride in water, giving a final concentration of 83 mM. The concentration of Lsp, FRET substrate, and library compounds during the activity assay were 400 nM, 50 μM, and 16 μM, respectively.
Catalytic signal was defined as the full enzyme activity pinning DMSO only, and background signal was measured by adding substrate to assay buffer containing no Lsp.
We tested several fixed concentrations of BBS-20 against varying concentrations of Lsp FRET substrate to determine a mechanism of inhibition (FIG. 8).

Series [3] deals with Lsp (Escherichia coli, UniProt P00804). To be noted: cited from earlier work.
The target of series [4] is Lsp FRET peptide substrate Dabsyl-VTGC((R)-2,3-di(palmitoyloxy)-propyl)AKD(EDANS). In words: cell-based or functional assay.
The target in series [5] is T2, Lsp FRET peptide substrate Dabsyl-VTGC((R)-2,3-di(palmitoyloxy)-propyl)AKD(EDANS).
T2 chain: VTGCAKD

T1 sequence (P00804 other isoform, or with tags, fused parts or gaps D131G/R160K): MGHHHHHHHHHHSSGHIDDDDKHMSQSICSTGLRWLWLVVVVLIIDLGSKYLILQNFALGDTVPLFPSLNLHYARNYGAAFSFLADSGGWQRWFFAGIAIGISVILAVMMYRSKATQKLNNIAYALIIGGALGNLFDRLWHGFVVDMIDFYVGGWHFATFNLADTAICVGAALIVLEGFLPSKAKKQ

For `CCC(CC)c1nnc(NC(=O)c2cc(OC)c(OC)cc2[N+](=O)[O-])s1` [SR-01000270728-1], the EC50 (usually the concentration needed to bring the measured effect to its halfway point) in series [1] was determined as 2.2 µM.
In the case of `CCN(CC)CCc1cn(CC(=O)NC[C@]2(C)CCC[C@]3(C)c4ccc(C(C)C)cc4CC[C@@H]23)nn1` [BBS-20], the IC50 (usually the concentration at which inhibition is half-maximal) in series [2] turned out to be 15 ± 4 µM. The “identified as Lsp inhibitor in Sharpless library screen” value in series [2] (16 μM compound, 400 nM Lsp, 50 μM FRET substrate, triplicate) is recorded as “inhibitors”. Moreover, the mode of inhibition entry in series [2] (fixed concentrations of compound against varying concentrations of Lsp FRET substrate) is listed as “noncompetitive”.
On to `CCCCCCC1OC(=O)CNC(=O)C(C(C)O)NC(=O)C(CO)NC(=O)C(C(C)CC)NC(=O)C(CC(C)C)N(C)C(=O)C1C` (stereo not shown) [globomycin], for which the mode of inhibition entry in series [3] is reported as “noncompetitively”.
The molecule “E. coli lipoprotein signal peptidase (Lsp), full length, N-terminal His-tag fusion, DDM-solubilized and purified (from UniProt P00804 1-164) (enzyme)” had a substrate inhibition (Michaelis-Menten kinetics of peptide hydrolysis, FRET) in series [4] of over 100 µM.

B1: E. coli lipoprotein signal peptidase (Lsp), full length, N-terminal His-tag fusion, DDM-solubilized and purified (protein)
chain: MSQSICSTGLRWLWLVVVVLIIDLGSKYLILQNFALGDTVPLFPSLNLHYARNYGAAFSFLADSGGWQRWFFAGIAIGISVILAVMMYRSKATQKLNNIAYALIIGGALGNLFDRLWHGFVVDMIDFYVGDWHFATFNLADTAICVGAALIVLEGFLPSRAKKQ
In the case of B1, in series [5], the “KM (Michaelis-Menten kinetics of peptide hydrolysis, FRET)” value was “KM=5 µM”.
